From article PMC9972471, “Calamene-Type Sesqui-, Mero-, and Bis-sesquiterpenoids from Cultures of Heimiomyces sp., a Basidiomycete Collected in Africa” (Journal of Natural Products, 2023) come the findings set out here.

What all share (type): cell-based
For test [1], the system named is Rhodotorula glutinis DSM 10134. Put plainly: Serial dilution assay, MIC. To be noted: for MIC: DSM10134, - = no inhibition was observed, read-out: Minimum inhibitory concentration (MIC). On the procedure:
(§1) Figure S3. ECD spectra of 7 .
(§2) Eval uation of anti mi cr obi al acti vity.
(§3) To assess the antimicrobial activity of each compound, a serial dilution assay to ascertain their minimum inhibitory concentration (MIC) against sever al yeast, fungal and bacterial strains was c arried out in 96-well micr otiter plates, as previously described by Har ms et al.
(§4) Table S1. Minimum inhibitory concentration (MIC in µg/mL) for yeast, bacterial and fungal strains.
(§5) The serial dilution assay was performed using 1 mg/mL stock solutions of 1 -8, 13, 15 and 16. As positive control the antimicrobials [ O] Oxytetracyclin , [ G] Gentamycin and [ K] Kanamycin wer e used for bacteria and [N] Nystatin was used for filamentous fungi and yeast.
(§6) (DSM 70572), Pichia anomala (DSM 6766), Candida albicans (DSM 1665), Escherichia coli (DSM 1116), Mycobacterium smegmatis (ATCC 700084), Pseudomonas aeruginosa (DSM PA14), Chromobacterium violaceum (DSM 30191) and Acinetobacter baumannii (DSM 30008).
(§7) (1 picture or pasted object on this page, not shown here)

Test [2] concerns Bacillus subtilis DSM 10. Put plainly: Serial dilution assay, MIC. The settings on record: for MIC: DSM10, - = no inhibition was observed, read-out: Minimum inhibitory concentration (MIC). On the procedure: as §1, §2, §3, §4, §5, §6, §7
Test [3] relates to cervix carcinoma cell line KB3.1. Put plainly: In vitro cytotoxicity assay. To be noted: Homo sapiens, KB 3-1, - = no activity, read-out: Half inhibitory concentration (IC50). How it is done: (§8) Eval uation of cytot ox icity.
(§9) Assessment of in vitro cytotoxicity was performed in 96-well plates, as previously published by Harms et al against the
(§10) mouse fibroblast cell line L929 and the cervix car cinoma cell line KB3.1. […]
(§11) Table S2. Half inhibitory concentration (IC50 i n µM ) .
(§12) The cytotoxicity assay was performed using 1 mg/mL stock solutions of 1 -8 , 13 , 15 and 16. Epo thilon B was tested as positive

In test [4] the test system is mouse fibroblast cell line L929. Put plainly: In vitro cytotoxicity assay. To be noted: - = no activity, read-out: Half inhibitory concentration (IC50). How it is done: as §8, §9, §10, §11, §12
In test [5] the test system is Mucor hiemalis DSM 2656. Put plainly: Serial dilution assay, MIC. On the procedure:
as §1, §2, §3, §4, §5, §6, §7

Test [6] concerns Staphylococcus aureus DSM 346. Put plainly: Serial dilution assay, MIC. To be noted: for MIC: Staphylococcus aureus, DSM346, read-out: Minimum inhibitory concentration (MIC). How it is done:
as §1, §2, §3, §4, §5, §6, §7

Test [7] relates to human ovarian carcinoma cell line SKOV-3. The test is described as follows: Extended cytotoxicity assay. To be noted: SK-OV-3, read-out: Half inhibitory concentration (IC50). How it is done: as §8
(§13) Assessment of in vitro cytotoxicity was performed in 96-well plates, as previously published by Harms et al against the mouse fibroblast cell line L929 and the cervix car cinoma cell line KB3.1. Heimiomycin D (5 ) was additionally tested against human breast carcinoma cell line MCF-7, human lung carcinoma cell line A549, human ovarian carcinoma cell line SKOV -3, human prostate carcinoma cell line P C-3 and human epidermoid carcinoma cell line A431.
(§14) Table S2. Half inhibitory concentration (IC50 i n µM ) . […]
(§15) Table S3. Half inhibitory concentration (IC50 in µM) of 5 .
(§16) The extended cytotoxicity assay against further cell lines was performed using a 1 mg/mL stock solution of 5 . Epothilon B was tested as positive control.
(§17) Hei mio my cin D (5) Epo B

Test [8] deals with human breast carcinoma cell line MCF-7. Put plainly: Extended cytotoxicity assay. The settings on record: MCF7, read-out: Half inhibitory concentration (IC50). On the procedure: as §8, §13, §14, §15, §16, §17
Test [9] has as its system human epidermoid carcinoma cell line A431. The test is described as follows: Extended cytotoxicity assay. The settings on record: read-out: Half inhibitory concentration (IC50). On the procedure:
as §8, §13, §14, §15, §16, §17

In test [10] the test system is human prostate carcinoma cell line PC-3. The test is described as follows: Extended cytotoxicity assay. The settings on record: read-out: Half inhibitory concentration (IC50). On the procedure:
as §8, §13, §11
(§18) The cytotoxicity assay was performed using 1 mg/mL stock solutions of 1 -8 , 13 , 15 and 16. Epo thilon B was tested as positive […]
(§19) IC50 in µM; - no activity
as §15, §16, §17

The subject of test [11] is human lung carcinoma cell line A549. Put plainly: Extended cytotoxicity assay. The settings on record: read-out: Half inhibitory concentration (IC50). How it is done:
as §8, §13, §11, §18, §19, §15, §16, §17

Converted amounts (≈) assume the structure as drawn. Where two headings read alike, the source gives them in different places.

On to `CC(C)[C@H]1CC[C@H](C)c2c(O)c(O)c(C=O)c(C3=C(O)C(=O)C(c4c(C=O)c(O)c(O)c5c4[C@@H](C(C)C)CC[C@@H]5C)=C(O)C3=O)c21` [compound 1, Bis-heimiomycin A], for which the MIC in test [1] was 66.6 µg/mL (≈ 105 µM); in [2], 33.3 µg/mL (≈ 52.6 µM).
As for `Cc1c(O)c(O)c(C(C)C)c2c1CCC(C(=O)O)=C2` [compound 8, Heimiocalamene B], the IC50 is 31.3 µM in [3] and 37.4 µM in test [4]. Moreover, the MIC in test [1] and in [2] was 66.6 µg/mL (≈ 254 µM) each time.
In the case of `C[C@@H]1[C@H](O)[C@@H](C)/C=C/C=C/CC/C=C/C=C/C=C/C=C/C(O[C@H]2O[C@H](C)[C@@H](O)[C@H](N)[C@@H]2O)CC2O[C@](O)(CC(O)C(O)CCC(O)CC(O)CC(O)CC(=O)O[C@H]1C)CC(O)C2C(=O)O` (stereo partly drawn) [Nystatin, reference compound], the “Minimum inhibitory concentration (MIC)” value in test [1] (- = no inhibition was observed) is reported as 4.2 µg/mL (≈ 4.54 µM); in test [5] (- = no inhibition was observed), 8.3 µg/mL (≈ 8.96 µM).
For the compound `CC(C)[C@H]1CC[C@H](C)c2c(O)c(O)c3c(c21)C1=C(OC3)C(=O)C2=C(OCc3c(O)c(O)c4c(c32)[C@@H](C(C)C)CC[C@@H]4C)C1=O` [compound 4, Bis-heimiomycin D], the IC50 in test [3] is 35 µM.
In the case of `O=c1cc(O)cc(/C=C/c2ccc(O)c(O)c2)o1` [compound 15, hispidin], the IC50 in test [3] was determined as 93.5 µM; in test [4] it was 85.4 µM.
On to `CN(C)[C@@H]1C(=O)C(C(N)=O)=C(O)[C@@]2(O)C(=O)C3=C(O)c4c(O)cccc4[C@@](C)(O)[C@H]3[C@H](O)[C@@H]12` [Oxytetracyclin, reference compound], for which the “Minimum inhibitory concentration (MIC)” value was found to be 8.3 µg/mL (≈ 18 µM) in test [2] (- = no inhibition was observed) and 0.83 µg/mL (≈ 1.8 µM) in test [6] (Staphylococcus aureus DSM 346, - = no inhibition was observed).
Consider `O=c1cc(O)cc(C2c3c(cc(/C=C/c4ccc(O)c(O)c4)oc3=O)OC2c2ccc(O)c(O)c2)o1` (stereo not drawn) [compound 16, hypholomin B], for which the MIC in test [2] came out at 33.3 µg/mL (≈ 67.9 µM).
As to `CC(C)[C@H]1CC[C@H](C)c2c(O)c(O)c(C=O)c(C3=C(O)C(=O)C=C(O)C3=O)c21` [compound 6, Heimiomycin E], in test [4], the IC50 worked out at 57 µM. Moreover, the MIC in [2] worked out at 16.6 µg/mL (≈ 43 µM); in [6], 66.6 µg/mL (≈ 172 µM).
With `CC1=C(O)C(=O)C(c2c(C=O)c(O)c(O)c3c2[C@@H](C(C)C)CC[C@@H]3C)=C(O)C1=O` [compound 5, Heimiomycin D], the IC50 in test [7] stood at 3 µM; in test [8], 2.5 µM; in test [9] (A431), 4.3 µM; in [9] (Homo sapiens, A-431, A431) it was 4.25 µM; in [3], 6.3 µM; in [4], 45 µM. The IC50 is 30 µM in test [10] and 14.3 µM in test [11]. For the same compound, the MIC in test [2] and in test [6] was 33.3 µg/mL (≈ 83.2 µM) each time.
Regarding `CC(C)[C@H]1CC[C@H](C)c2c(O)c(O)c(CO)c(C3=C(O)C(=O)C4=C(OCc5c(O)c(O)c6c(c54)[C@@H](C(C)C)CC[C@@H]6C)C3=O)c21` [compound 3, Bis-heimiomycin C], the values for the IC50 in [3] and in [4] were 27.5 µM and 32.4 µM, respectively. For the same compound, the MIC in test [2] was 16.6 µg/mL (≈ 26.8 µM); in [6], 33.3 µg/mL (≈ 53.8 µM).
Take `CC(C)[C@H]1CC[C@H](C)c2c(O)c(O)c(C=O)c(C3=C(O)C(=O)C4=C(OCc5c(O)c(O)c6c(c54)[C@@H](C(C)C)CC[C@@H]6C)C3=O)c21` [compound 2, Bis-heimiomycin B]: the IC50 in test [3] amounted to 30.8 µM. In addition, the MIC was 16.6 µg/mL (≈ 26.9 µM) in test [2] and 33.3 µg/mL (≈ 54 µM) in test [6].
Regarding `CC(C)[C@H]1CC[C@H](C)C2=C1C=C(C(=O)O)CC2` [compound 7, Heimiocalamene A], the IC50 in test [3] was determined as 85.5 µM. The MIC in test [1] is 66.6 µg/mL (≈ 284 µM); in test [2], 66.6 µg/mL (≈ 284 µM); in [5] (DSM2656, - = no inhibition was observed, read-out: Minimum inhibitory concentration (MIC)) it was 33.3 µg/mL (≈ 142 µM); in test [6] it was 66.6 µg/mL (≈ 284 µM).
